Assay results published in US8859026B2, “Method for reducing methoxypyrazines in grapes and grape products” (Brock University, priority 2009, dated 2014).
Like-named read-outs stand apart in the source and are kept apart here.

Key:
[1] = target: T1, rat OBP1F (rat OBP variant 1F), recombinant (Rattus norvegicus, UniProt P08937); experiment: 1-AMA fluorescence binding assay, rat OBP-1F
T1 construct: made in house; host or cells: Pichia pastoris (vector pPIC9; recombinant strain provided by J.-C; Pernollet, INRA)
T1 sequence (P08937 16-172): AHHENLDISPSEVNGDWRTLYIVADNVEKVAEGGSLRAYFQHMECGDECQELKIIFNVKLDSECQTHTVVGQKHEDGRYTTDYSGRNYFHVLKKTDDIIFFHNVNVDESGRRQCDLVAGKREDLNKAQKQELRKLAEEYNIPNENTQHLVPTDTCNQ
Description: (§1) The excitation wavelength of 290 nm was used and fluorescence emission intensities were monitored at 504 nm, 483 nm and 486 nm for rat OBP1F, piglet OBP and mouse MUPII respectively.
(§2) Fluorescence ligand binding experiments were performed on a Photon Technology International (London, Canada) Quanta Master Model QM2001 fluorometer at room temperature (19-20° C.), using 1 cm light path quartz cuvettes (Hellma). Slit width of 2 nm was used for excitation and emission for assaying a proteins except ratOBP1F, for which excitation and emission slit width of 6 nm was used.
(§3) Binding curves with 1-AMA were obtained by titrating protein (2 μM) in 50 mM sodium phosphate, pH 7.2 with ligand (0-50 uM, prepared gravimetrically as a 1 mM stock solution in 10% v/v methanol). To examine dependence of binding on pH, fluorescence spectra was measured in 50 mM citrate phosphate solutions at pH 3.0, 4.0 and 5.0. Fluorescence of 1-AMA was excited at 290 nm and emission was scanned from 450 to 550 nm.
(§4) Dissociation constants were calculated from a plot of fluorescence intensity against total ligand concentration fitted with non linear regression using Prism 3.02 (GraphPad Software Inc., La Jolla, Calif.).

[2] = target: T2, piglet OBP (pIOBP), Genbank AF436848, Uniprot Q8WMH1-1, SEQ ID NO: 3 (codon optimized) / SEQ ID NO: 4 (non-optimized), recombinant (Sus scrofa, UniProt P81245); experiment: 1-AMA fluorescence binding assay, piglet OBP; design: species or system pig (piglet/prepubertal)
T2 construct: S. cerevisiae alpha-mating factor secretion signal (pPIC9) (N); made in house; host or cells: Pichia pastoris GS115 (vector pPIC9)
T2 sequence (P81245 with tags, fused parts or gaps): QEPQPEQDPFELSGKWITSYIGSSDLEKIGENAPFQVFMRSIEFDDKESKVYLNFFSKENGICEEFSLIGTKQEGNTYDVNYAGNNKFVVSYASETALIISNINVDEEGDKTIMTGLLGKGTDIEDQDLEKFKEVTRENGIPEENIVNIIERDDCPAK
Source text: as §1
(§5) cDNA sequence encoding mature piglet OBP (Genbank AF436848) and the mouse MUPII (Genbank AJ309921) were designed for heterologous expression in the methylotrophic yeast P. pastoris as follows: at the 5′ end of coding sequences, native signal peptide sequences were removed and replaced with XhoI (CTC GAG ([SEQ ID NO: 1]) and prepro sequence of the S. cerevisiae α-mating factor (AAA AGA [SEQ ID NO:2]). A stop codon and an EcoRI restriction site were added at the 3′ terminus. The sequences were then optimized for G+C content and preferred codon usage in P. pastoris. Modified coding sequences were synthesized and cloned in frame with the α-mating factor secretion signal into the pPIC9 expression vector between the XhoI and EcoRI sites (GenScript Corp., Piscataway, N.J.). Further information about the protein sequences is provided below:
Uniprot ID Q8WMH1-1, Genbank AF436848. *chain comprises 158 residues *differs from adult isoform/variant by an additional lysine residue at the C terminal end. Tissue source for cloning and binding: vomeronasal organ, but the isomer is also found in both vomeronasal and nasal mucosa.
as §2, §3, §4

[3] = target: T3, mouse MUPII (mMUPII), Genbank AJ309921, Uniprot P11589, SEQ ID NO: 5, recombinant (Mus musculus, UniProt P11589); experiment: 1-AMA fluorescence binding assay, mouse MUPII
T3 construct: no tag mentioned
T3 sequence (P11589 19-180): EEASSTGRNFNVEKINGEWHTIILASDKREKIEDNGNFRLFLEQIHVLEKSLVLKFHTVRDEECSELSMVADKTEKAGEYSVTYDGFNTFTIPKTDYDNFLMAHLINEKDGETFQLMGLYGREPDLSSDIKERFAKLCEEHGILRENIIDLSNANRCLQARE
Source text: as §1, §5
3. mouse MUPII (MUPIIa Genbank AJ309921, MUP BL1 gene, Uniprot ID P11589)
as §2, §3, §4

[4] = target: rat OBP-1F; conditions: 1-AMA; Briand et al. 2000 (21); cited from earlier work
[5] = target: adult porcine OBP isoform; conditions: 1-AMA; Paolini et al. 1999 (26), Ramoni et al. 2007 (27); cited from earlier work
[6] = target: T4, piglet OBP (Sus scrofa, UniProt P81245); experiment: Competitive fluorescent binding assay: displacement of 1-AMA from piglet OBP by odorants IPMP and IBMP; design: species or system porcine; conditions: for Kd: calculated from IC50, read-out: Kd for piglet OBP
T4 construct: made in house; host or cells: Pichia pastoris GS115 (pPIC9, alpha-mating factor secretion signal)
T4 sequence (P81245 with tags, fused parts or gaps): T2 sequence (P81245 with tags, fused parts or gaps)
Description: (§6) The interaction of odorants with AMA complex was examined by monitoring the decrease in fluorescence intensity of protein/1-AMA complex upon the addition of competitor compounds.
(§7) In competitive binding assays, 1-AMA (10 μM) was equilibrated with protein (2 μM) at pH 7.2 50 mM sodium phosphate buffer and pH 3.0 50 mM citrate phosphate buffer, and titrated with increasing concentrations of odorants (0-100 μM) solubilized in 10% v/v methanol.
(§8) The affinity of OBPs for odorants was estimated by plotting the decrease of intensity of 1-AMA fluorescence at the emission maximum, (22). Odorant concentrations causing fluorescence decay to half-maximal intensity (IC50 values) were determined from the plot of (I−Imin)/(I0−Imin) against the competitor concentration; I0 is the maximum of fluorescence intensity of the protein/1-AMA complex; I is the fluorescence intensity after addition of an aliquot of competitor, and Imin the fluorescence intensity at saturating concentration of the competitor.

[7] = target: T1, rat OBP1F (rat OBP variant 1F), recombinant; experiment: Competitive displacement of 1-AMA, rat OBP-1F; type: binding; conditions: pH 7.2
Description: (§9) Competitive binding assays were done with 2 uM protein pre equilibrated with five fold 1-AMA concentration (10 uM). Fluorescence decay of the protein/1-AMA complex is expressed as a ratio of initial and final fluorescence against the total competitor concentration: (I−Imin)/(Io−Imin) where Io=fluorescence intensity of the protein/1-AMA complex, Imin=fluorescence intensity at saturation, and I=fluorescence intensity at a given competitor concentration.
as §2, §6, §7, §8

[8] = target: T2, piglet OBP (pIOBP), Genbank AF436848, Uniprot Q8WMH1-1, SEQ ID NO: 3 (codon optimized) / SEQ ID NO: 4 (non-optimized), recombinant; experiment: Competitive displacement of 1-AMA, piglet OBP; type: binding, pig (piglet/prepubertal)
Description: as §9, §2, §6, §7, §8

[9] = target: T3, mouse MUPII (mMUPII), Genbank AJ309921, Uniprot P11589, SEQ ID NO: 5, recombinant; experiment: Competitive displacement of 1-AMA, mouse MUPII; type: binding; conditions: for IC50: displacement of 1-AMA, 2 uM protein, 10 uM 1-AMA
Description: as §9, §2, §6, §7, §8

[10] = target: rat OBP; conditions: Nespoulous et al 2004; read-out: apparent Kd; cited from earlier work
[11] = target: rOBP-1F; conditions: cited from earlier work
[12] = target: pOBP (adult porcine OBP); conditions: cited from earlier work
[13] = target: mMUPII (mouse major urinary protein isoform II); conditions: cited from earlier work
[14] = tested on: pOBP, adult porcine OBP isoform; conditions: isothermal calorimetry, Burova et al., 1999, cited from earlier work

Compound: Nc1cccc2cc3ccccc3cc12 [1-AMA, 1-aminoanthracene]
- saturable binding ([1]; pH 3.0): saturable binding curve was not detected
- Kd ([1]; pH 5.0): 1.7 µM
- Kd ([1]; pH 7.2): 1.64 µM
- Kd ([2]; pH 3.0): 4.3 µM
- decrease in binding affinity compared with pH 7.2 ([2]; pH 3.0): 3.4 fold
- maximal binding capacity compared with pH 7.2 ([2]; pH 3.0): approximately halved
- Kd ([2]; pH 4.0): 2.66 µM
- decrease in binding affinity compared with pH 7.2 ([2]; pH 4.0): 2 fold
- Kd ([2]; pH 5.0): 1.45 µM
- Kd ([2]; pH 7.2): 1.26 µM
- Kd ([3]; pH 3.0): 3.48 µM
- Kd ([3]; pH 4.0): 1.97 µM
- Kd ([3]; pH 5.0): 1.85 µM
- Kd ([3]; pH 7.2): 0.49 µM
- binding capacity compared with pH 7.2 ([3]; pH 3.0): less than halved
- decrease in binding affinity compared with pH 7.2 ([3]; pH 3.0): 7 fold
- decrease in binding affinity compared with pH 7.2 ([3]; pH 4.0): about 4 fold
- decrease in binding affinity compared with pH 7.2 ([3]; pH 5.0): about 4 fold
- Kd [4]: 0.6 µM
- Kd [5]: 1.2 to 1.3 µM

Compound: COc1nccnc1CC(C)C [IBMP, 2-isobutyl-3-methoxypyrazine]
- IC50 ([6]; pH 3.0): 3.65 µM
- affinity for pIOBP, more strongly than IPMP ([6]; pH 3.0): 1.6 fold
- Kd ([6]; pH 3.0): 1.47 µM
- IC50 ([6]; pH 7.2): 6.86 µM
- affinity for pIOBP, more strongly than IPMP ([6]; pH 7.2): about 5 fold
- Kd ([6]; pH 7.2): 0.94 µM
- Kd ([7]; calculated from IC50): 0.043 µM
- IC50 ([7]; displacement of 1-AMA, 2 uM protein, 10 uM 1-AMA): 0.25 µM
- binding to rOBP-1F more strongly than to mMUPII [7]: ~20 fold
- binding to rOBP-1F more strongly than to pIOBP [7]: about 10 fold
- displacement of 1-AMA fluorescence [7]: complete displacement
- Kd [8]: 1 µM
- displacement of fluorescence ([8]; pH 3.0): complete displacement
- displacement of 1-AMA fluorescence ([8]; pH 7.2): complete displacement
- Kd ([9]; calculated from IC50, pH 3.0, read-out: Kd): 1.08 µM
- Kd ([9]; calculated from IC50, pH 7.2, read-out: Kd): 0.48 µM
- IC50 ([9]; pH 3.0): 3.41 µM
- IC50 ([9]; pH 7.2): 8.07 µM
- displacement of fluorescence ([9]; pH 3.0): complete displacement
- Kd ([9]; pH 3.0, read-out: apparent Kd): 1 µM
- displacement of 1-AMA fluorescence ([9]; pH 7.2): complete displacement
- Kd ([9]; pH 7.2, read-out: apparent Kd): 0.5 µM
- Kd [10]: 0.069 µM
- Kd [11]: 0.069 µM
- Kd [12]: 0.5 to 0.9 µM
- Kd [13]: 0.94 µM
- molar binding stoichiometry n ([14]; pH 3.5): 0.417
- molar binding stoichiometry n ([14]; pH 4.1): 1.080
- affinity to IBMP ([14]; pH 6.6, pH 4.1 and pH 3.5): remained relatively unchanged
- molar binding stoichiometry n ([14]; pH 6.6): 1.220
